Measured values from patent publication US9115059B2, “Oxime derivatives of 3,5-seco-4-nor-cholestane, pharmaceutical compositions containing same, and method for preparing same” (TROPHOS, priority 2008, dated 2015).

Tests used:
motoneurons = experiment: Survival of motoneurons under trophic deprivation in vitro (calcein fluorescence); type: cell-based; details: E14 rat motoneurons, 3 days of culture in Neurobasal medium without trophic factors
Text: It may be useful to refer to patent application WO 0142784 of the applicant regarding culture of the motoneurons of the spinal cord.
The spinal cord of E14 rat embryos is dissected and the ventral part is dissociated by trituration after trypsinization.
The motoneurons are separated from the other spinal cells by a known method (Camu et al., 1993, Purification of spinal motoneurons from chicken and rat embryos by immunopanning. In “Immunoselection Strategies for Neural cell culture”, Neuroprotocols: A companion to Methods in Neurosciences 2, 191-199; Henderson et al., 1993, Neutrophins promote motoneuron survival and are present in embryonic limb bud. Nature 363 (6426):266-70).
The cells are centrifuged on a density gradient. The motoneurons are enriched in the fraction of large cells (the […]). The cells of this fraction are incubated with an anti-p75 antibody, a surface antigen present on motoneurons.
Secondary antibodies coupled to magnetic beads are added and the mixture of cells is passed through a column in a magnet (Arce et al., 1999 Cardiotrophin-1 requires LIFRbeta to promote survival of mouse motoneurons purified by a novel technique. J. Neurosci Res 55(1): 119-26). Only the motoneurons are retained: their purity is of the order of 90%.
The motoneurons are seeded at low density in culture wells on a polyornithine-laminin substrate in a Neurobasal medium (GIBCO) supplemented according to Raoul et al., 1999, Programmed cell death of embryonic motoneurons triggered through the Fas death receptor. J Cell Biol 147(5):1049-62.
Negative controls (absence of trophic factors) and positive controls (in the presence of BDNF (Brain-Derived Neurotrophic Factor) at 1 ng/ml, GDNF (Glial-Derived Neurotrophic Factor) at 1 ng/ml and CNTF (Ciliary Neurotrophic Factor) at 10 ng/ml, marketed by the American company PEPROTECH, Inc. and the company Sigma-Aldrich, are included in each series.
The test compounds are added 60 minutes after seeding and the cultures are kept at 37° C. under 5% CO2 for 3 days.
The motoneurons have a spontaneous tendency to die in the absence of neurotrophic factors (Pettmann and Henderson, 1998, Neuronal cell death. Neuron 20(4):633-47). After 3 days, survival is evaluated by measurement of fluorescence after incubation of the cells in the presence of calcein, which becomes fluorescent in living cells.
After 3 days of culture at 37° C., under 5% CO2 and at saturating humidity, up to 50% of the motoneurons seeded initially survive in the medium supplemented with neurotrophic factors, whereas less than 15% of the motoneurons survive in the culture medium without addition of neurotrophic factors.
The neuroprotective activity of the test compounds was evaluated by their capacity for preventing death of motoneurons when they are added to the Neurobasal medium (GIBCO) in comparison with the survival of motoneurons in the medium to which neurotrophic factors were added.
This survival rate is expressed by the number of living cells after treatment with the test compound relative to the survival induced by the neurotrophic factors. This ratio can therefore represent the percentage survival due to the compound tested relative to the survival induced by the neurotrophic factors. If the ratio is greater than 0, the compounds have a positive effect on survival of the motoneurons.

[1] = test system: avidins (streptavidin or neutravidin); details: cited from earlier work

Compound	Ratio (living cells after treatment with the test compound relative to the survival induced by the neurotrophic factors) (motoneurons; concentration 1 μM)	also measured
CC(C)CCCC(C)C1CCC2C3CCC(=NO)C(C)(CCO)C3CCC12C (stereo not drawn) [Compound 10, 3,4-dinor-2,5-secocholestan-2-ol-5-one oxime]	>0.2	–
CC(CCCC(C)(C)O)C1CCC2C3CCC(=NO)C(C)(CCCO)C3CCC12C (stereo not drawn) [Compound 2, 4-nor-3,5-secocholestan-3,25-diol-5-one oxime]	–	Ratio (living cells after treatment with the test compound relative to the survival induced by the neurotrophic factors) (motoneurons; concentration 3 μM): >0.2
CCCC1(C)C(=NO)CCC2C1CCC1(C)C(C(C)CCCC(C)C)CCC21 (stereo not drawn) [Compound 7, 4-nor-3,5-secocholestan-5-one oxime]	>0.2	–
CC(C)=CCCC(C)C1CCC2C3CCC(=NO)C(C)(CCCO)C3CCC12C (stereo not drawn) [Compound 11, 4-nor-3,5-secocholest-24-en-3-ol-5-one oxime]	>0.2	–
CC(C)CCCC(C)C1CCC2C3C=CC(=NO)C(C)(CCCO)C3CCC12C (stereo not drawn) [Compound 8, 4-nor-3,5-secocholest-6-en-3-ol-5-one oxime]	>0.2	–
CC(C)CCC[C@@H](C)[C@H]1CCC2C3CC/C(=N/O)[C@](C)(CCCN(C)C(=O)CCCC[C@@H]4SC[C@@H]5NC(=O)N[C@@H]54)C3CC[C@@]21C (stereo partly drawn) [Compound 4, 3-[(N-(+)-biotinoyl-N-methyl)amino]-4-nor-3,5-secocholestan-5-one oxime]	–	Ratio (living cells after treatment with the test compound relative to the survival induced by the neurotrophic factors) (motoneurons; concentration 0.3 μM): >0.2
7-hydroxyamino-4-nor-3,5-secocholest-6-year-3-ol-5-one oxime [Compound 9]	>0.2	–
O=C(O)CCCC[C@@H]1SC[C@@H]2NC(=O)N[C@@H]21 [biotin]	–	Ka (affinity of avidins for biotin) [1]: ~10^7 M
CC(C)CCCC(C)C1CCC2C3CCC(=NO)C(C)(CCC(O)C(F)(F)F)C3CCC12C (stereo not drawn) [Compound 3, 4-nor-3,5-seco-3-(trifluoromethyl)cholestan-3-ol-5-one oxime]	>0.2	–
CCC(C=CC(C)C1CCC2C3CCC(=NO)C(C)(CCCO)C3CCC12C)C(C)C (stereo not drawn) [Compound 12, 24β-ethyl-4-nor-3,5-secocholest-22-en-3-ol-5-one oxime]	>0.2	–
CC(C)CCC[C@@H](C)[C@H]1CCC2C3CC/C(=N/O)[C@](C)(CCCN(C)c4ccc([N+](=O)[O-])c5nonc45)C3CC[C@@]21C (stereo partly drawn) [Compound 5, 3-[methyl-(7-nitro-2,1,3-benzoxadiazol-4-yl)amino]-4-nor-3,5-secocholestan-5-one oxime]	>0.2	–
CC(CCCC(C)(C)F)C1CCC2C3CCC(=NO)C(C)(CCCO)C3CCC12C (stereo not drawn) [Compound 6, 25-fluoro-4-nor-3,5-secocholestan-3-ol-5-one oxime]	–	Ratio (living cells after treatment with the test compound relative to the survival induced by the neurotrophic factors) (motoneurons; concentration 3 μM): >0.2
